Experimental data reported in patent US12285407B2, “Bis-indolylmethane derivatives and uses thereof” (The University of The West Indies, priority 2018, dated 2025).
Where two headings read alike, the source gives them in different places.

What was measured:
MRSA = assay: Adjuvant broth microdilution (antibiotic MIC with SP-BIM at 50 μg/mL); assay type: cell-based, Staphylococcus aureus; conditions: Staphylococcus aureus, antibiotic alone, Table 4, read-out: MIC of antibiotic, No compound
Escherichia coli = assay: Checkerboard synergy (FICI) of antibiotics with SP-BIM
Streptococcus pneumoniae [1] = assay: as above; assay type: cell-based
Enterococcus faecium = assay: as above; assay type: cell-based; conditions: Enterococcus faecium
Bacillus cereus = assay: as above; assay type: cell-based; conditions: for MIC: 24 h, antibiotic alone, read-out: MIC antibiotic only
Klebsiella pneumoniae [2] = assay: Adjuvant broth microdilution (antibiotic MIC with SP-BIM at 50 μg/mL); assay type: cell-based; conditions: Klebsiella pneumoniae; antibiotic alone; Table 7; read-out: MIC of antibiotic, No compound
Candida albicans = assay: Checkerboard synergy (FICI) of antibiotics with SP-BIM; set-up: MIC SP-BIM 13 only / MIC in combination: Antibiotic / MIC antibiotic only: unit not given beside the values
Klebsiella pneumoniae [3] = assay: as above; assay type: cell-based
Staphylococcus aureus = assay: as above; assay type: cell-based; conditions: Staphylococcus aureus, Staphylococcus aureus
Streptococcus pneumoniae [4] = assay: Adjuvant broth microdilution (antibiotic MIC with SP-BIM at 50 μg/mL); assay type: cell-based; conditions: Streptococcus pneumoniae; Streptococcus pneumonia; antibiotic alone; Table 5; read-out: MIC of antibiotic, No compound
Escherichia coli O157:H7 = assay: Rescue concentrations of SP-BIM that reactivate antibiotic; assay type: cell-based
[5] = SP-BIM 9 in combination with the labelled antibiotic
[6] = SP-BIM 13 in combination with the labelled antibiotic
[7] = antibiotic in combination with SP-BIM 9
[8] = Streptococcus pneumoniae, antibiotic + SP-BIM 13
[9] = antibiotic in combination with SP-BIM 13

Which MIC (MRSA) does the source give for `C[C@H]1[C@H](NC(=O)/C(=N\OC(C)(C)C(=O)O)c2csc(N)n2)C(=O)N1S(=O)(=O)O` [Aztreonam, aztreonam] here?
The MIC was > 250 µg/mL.

What about the “FIC of SP-BIM 9” value (Escherichia coli; [5]) of the same compound?
Its value is 0.5.

And the “FIC of SP-BIM 13” value (Escherichia coli; [6])?
The value was 1.0.

And the Interpretation (Escherichia coli; antibiotic + SP-BIM 9)?
Its Interpretation is “Synergy (Synergy: FICI≤0.5)”.

And the “Σ FIC” value (Escherichia coli; antibiotic + SP-BIM 9)?
Its value is <0.8.

And the Interpretation (Escherichia coli; antibiotic + SP-BIM 13)?
The Interpretation was “Indifferent (Indifferent: FICI>1.0-4.0)”.

What about the “Σ FIC” value (Escherichia coli; antibiotic + SP-BIM 13) of the same compound?
The value was <2.0.

What about the “MIC in combination, Antibiotic” value (Escherichia coli; [7]) of the same compound?
Its value is 32 µg/mL.

And the FIC of antibiotic (Escherichia coli; combination with SP-BIM 13)?
The FIC of antibiotic was 1.0.

And the FIC of antibiotic (Escherichia coli; in combination with SP-BIM 9)?
The FIC of antibiotic was 0.256.

What about the “Σ FIC” value (Streptococcus pneumoniae [1]; Streptococcus pneumonia (title: Streptococcus pyogenes), antibiotic + SP-BIM 9) of the same compound?
The value was <0.00.

And the “FIC of SP-BIM 13” value (Streptococcus pneumoniae [1]; Streptococcus pneumoniae, SP-BIM 13 in combination with the labelled antibiotic)?
The value was 0.3.

What about the Interpretation (Streptococcus pneumoniae [1]; [8]) of the same compound?
The Interpretation was “Synergy (Synergy: FICI≤0.5)”.

And the “Σ FIC” value (Streptococcus pneumoniae [1]; [8])?
Its value is <0.3.

And the “MIC in combination, Antibiotic” value (Streptococcus pneumoniae [1]; Streptococcus pneumoniae, antibiotic in combination with SP-BIM 13)?
Its value is 8 µg/mL.

And the FIC of antibiotic (Streptococcus pneumoniae [1]; Streptococcus pneumoniae, in combination with SP-BIM 13)?
The FIC of antibiotic was 0.1.

What about the “FIC of SP-BIM 13” value (Enterococcus faecium; [6]) of the same compound?
The value was 1.0.

What about the Interpretation (Enterococcus faecium; antibiotic + SP-BIM 13) of the same compound?
The Interpretation was “Indifferent (Indifferent: FICI>1.0-4.0)”.

And the “Σ FIC” value (Enterococcus faecium; antibiotic + SP-BIM 13)?
The value was 2.0.

What about the FIC of antibiotic (Enterococcus faecium; in combination with SP-BIM 13) of the same compound?
Its FIC of antibiotic is 1.0.

And the MIC (Bacillus cereus; SP-BIM 9 checkerboard)?
The MIC was > 250 µg/mL.

And the MIC (Bacillus cereus; SP-BIM 13 checkerboard)?
The MIC was 250 µg/mL.

And the “MIC in combination, SP-BIM 9” value (Bacillus cereus; SP-BIM 9 concentration in combination with the labelled antibiotic)?
Its value is 63 µg/mL.

And the “FIC of SP-BIM 9” value (Bacillus cereus; [5])?
Its value is 0.252.

What about the “FIC of SP-BIM 13” value (Bacillus cereus; [6]) of the same compound?
The value was 0.5.

What about the Interpretation (Bacillus cereus; antibiotic + SP-BIM 9) of the same compound?
Its Interpretation is “Synergy (Synergy: FICI≤0.5)”.

What about the “Σ FIC” value (Bacillus cereus; antibiotic + SP-BIM 9) of the same compound?
Its value is <0.5.

And the Interpretation (Bacillus cereus; antibiotic + SP-BIM 13)?
The Interpretation was “Indifferent (Indifferent: FICI>1.0-4.0)”.

And the “Σ FIC” value (Bacillus cereus; antibiotic + SP-BIM 13)?
Its value is 1.5.

What about the “MIC in combination, Antibiotic” value (Bacillus cereus; [7]) of the same compound?
Its value is 63 µg/mL.

And the “MIC in combination, Antibiotic” value (Bacillus cereus; [9])?
The value was 250 µg/mL.

What about the FIC of antibiotic (Bacillus cereus; in combination with SP-BIM 9) of the same compound?
Its FIC of antibiotic is 0.252.

What about the FIC of antibiotic (Bacillus cereus; in combination with SP-BIM 13) of the same compound?
The FIC of antibiotic was 1.00.

What about the MIC (Klebsiella pneumoniae [2]) of the same compound?
Its MIC is 8 µg/mL.

And the MIC (Candida albicans; 24 h, read-out: MIC antibiotic only)?
Its MIC is > 250 µg/mL.

And the “MIC in combination: Antibiotic” value (Candida albicans; MIC of the antibiotic in combination with SP-BIM 13)?
The value was 250.

What about the “FIC of SP-BIM 13” value (Candida albicans; [6]) of the same compound?
Its value is 1.0.

And the Interpretation (Candida albicans; antibiotic + SP-BIM 13)?
The Interpretation was “Indifferent (Indifferent: FICI>1.0-4.0)”.

And the “Σ FIC” value (Candida albicans; antibiotic + SP-BIM 13)?
Its value is <2.0.

What about the FIC of antibiotic (Candida albicans; combination with SP-BIM 13) of the same compound?
Its FIC of antibiotic is 1.0.

What about the “FIC of SP-BIM 9” value (Klebsiella pneumoniae [3]; [5]) of the same compound?
The value was 0.064.

And the “FIC of SP-BIM 13” value (Klebsiella pneumoniae [3]; [6])?
The value was 0.3.

What about the Interpretation (Klebsiella pneumoniae [3]; antibiotic + SP-BIM 9) of the same compound?
The Interpretation was “Synergy (Synergy: FICI≤0.5)”.

And the “Σ FIC” value (Klebsiella pneumoniae [3]; antibiotic + SP-BIM 9)?
The value was <0.1.

What about the Interpretation (Klebsiella pneumoniae [3]; antibiotic + SP-BIM 13) of the same compound?
The Interpretation was “Synergy (Synergy: FICI≤0.5)”.

And the “Σ FIC” value (Klebsiella pneumoniae [3]; antibiotic + SP-BIM 13)?
Its value is <0.3.

And the “MIC in combination, Antibiotic” value (Klebsiella pneumoniae [3]; [7])?
The value was 1 µg/mL.

What about the “MIC in combination, Antibiotic” value (Klebsiella pneumoniae [3]; [9]) of the same compound?
Its value is 8 µg/mL.

And the FIC of antibiotic (Klebsiella pneumoniae [3]; in combination with SP-BIM 9)?
Its FIC of antibiotic is 0.008.

What about the FIC of antibiotic (Klebsiella pneumoniae [3]; in combination with SP-BIM 13) of the same compound?
Its FIC of antibiotic is 0.1.

And the MIC (Staphylococcus aureus; 24 h, antibiotic alone, SP-BIM 9 checkerboard, read-out: MIC antibiotic only)?
Its MIC is > 250 µg/mL.

And the MIC (Staphylococcus aureus; 24 h, antibiotic alone, SP-BIM 13 checkerboard, read-out: MIC antibiotic only)?
The MIC was > 250 µg/mL.

And the MIC (Staphylococcus aureus; MRSA, read-out: MIC of aztreonam only, MRSA, checkerboard)?
The MIC was 250 µg/mL.

And the “FIC of SP-BIM 9” value (Staphylococcus aureus; [5])?
The value was 0.12.

What about the “FIC of SP-BIM 13” value (Staphylococcus aureus; [6]) of the same compound?
Its value is 0.5.

What about the Interpretation (Staphylococcus aureus; antibiotic + SP-BIM 9) of the same compound?
The Interpretation was “Synergy (Synergy: FICI≤0.5)”.

And the “Σ FIC” value (Staphylococcus aureus; antibiotic + SP-BIM 9)?
Its value is <0.16.

And the Interpretation (Staphylococcus aureus; antibiotic + SP-BIM 13)?
Its Interpretation is “Additive (Additive: FICI>0.5-1.0)”.

What about the “Σ FIC” value (Staphylococcus aureus; antibiotic + SP-BIM 13) of the same compound?
Its value is <0.6.

And the “MIC in combination, Antibiotic” value (Staphylococcus aureus; [7])?
Its value is 8.0 µg/mL.

And the “MIC in combination, Antibiotic” value (Staphylococcus aureus; [9])?
The value was 32 µg/mL.

And the FIC of antibiotic (Staphylococcus aureus; in combination with SP-BIM 9)?
Its FIC of antibiotic is 0.03.

What about the FIC of antibiotic (Staphylococcus aureus; in combination with SP-BIM 13) of the same compound?
Its FIC of antibiotic is 0.1.

And the MIC (Streptococcus pneumoniae [4])?
Its MIC is > 250 µg/mL.

For `Oc1ccc2[nH]cc(C(c3ccc(Br)cc3)c3c[nH]c4ccc(O)cc34)c2c1` [SP-BIM 26, 3,3′-((4-bromophenyl)methylene)bis(1H-indol-5-ol)], which “MIC of vancomycin in combination with […] SP-BIM 26” value (Escherichia coli O157:H7; E. coli O157:H7) is on record?
The value was 4 µg/mL.

What about the MIC (Escherichia coli O157:H7; Escherichia coli, read-out: MIC (single agent)) of the same compound?
The MIC was > 250 µg/mL.
